From patent US20190151274A1, “COMPOUND FOR USE IN THE TREATMENT OF A BLOOD VESSEL DISEASE” (Universitaet Potsdam, priority 2017, published 2019)

Test system: ALK1 mutant zebrafish
Experiment: Treatment of ALK1 mutant zebrafish, microscopic images of the lateral dorsal aorta
Assay type: in vivo
Conditions: 0.3 μM ATRA, 24-51 hours after insemination; control 0.1% DMSO; FIG. 5
Protocol: The zebrafish ALK1 mutant is in a gene that is defective in some patients that suffer from HHT (hereditary hemorrhagic telangiectasia). The ALK1 mutant phenotype is an enlarged lateral dorsal aorta (LDA).
The treatment with the different active ingredients took place, between 24-51 hours after insemination of zebrafish eggs. The treatment was performed with 0.1% DMSO (first row) and 0.3 μM ATRA (second row).

CC1=C(/C=C/C(C)=C/C=C/C(C)=C/C(=O)O)C(C)(C)CCC1 [ATRA, all-trans retinoic acid]
overgrowth of the aorta (enlarged lateral dorsal aorta) in the ALK1 mutant: suppressed
